Here are results for 21 compounds from patent publication US7553867B2, “Furan or thiophene derivative and medicinal use thereof” (Takeda Pharmaceutical Company Limited, priority 2002, dated 2009).

Molecules are shown by their SMILES.

For the first series, the target named is T1, human GPR40 (Homo sapiens, UniProt O14842).
T1 construct: expressed in transfected cells; host or cells: CHO cell strain (No. 104)
T1 sequence (O14842 whole entry): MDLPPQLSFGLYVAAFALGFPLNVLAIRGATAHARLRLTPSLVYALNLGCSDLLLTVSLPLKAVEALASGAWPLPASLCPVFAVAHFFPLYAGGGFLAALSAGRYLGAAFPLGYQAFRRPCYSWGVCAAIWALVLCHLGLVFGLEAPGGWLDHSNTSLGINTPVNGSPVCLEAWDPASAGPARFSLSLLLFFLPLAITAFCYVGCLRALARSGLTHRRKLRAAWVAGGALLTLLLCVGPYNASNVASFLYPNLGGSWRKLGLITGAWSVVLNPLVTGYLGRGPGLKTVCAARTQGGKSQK
The series can be described thus: Receptor function regulating action (agonist action) for GPR40, intracellular calcium by FLIPR in CHO cells. To be noted: CHO cells expressing human GPR40; change of fluorescence intensity at 30 seconds after reaction initiation. Format: cell-based. The method, then:
CHO cell strain (No. 104) which have had expressed human GPR40 was diluted to contain 3×10^4 cells/100 μL, and added to a Black walled 96-well plate (Costar) at 100 μL/well, and incubated overnight in CO2 incubator. Change of intracellular calcium concentration was measured with FLIPR (Molecular Device). The method is as follows. 50 μg of Fluo-3AM (DOJIN) was dissolved in 21 μL of DMSO (DOJIN), and the same amount of 20% pluronic acid (Molecular Probes) was further added thereto, and the mixture was mixed. The mixture was added to 10.6 mL of an assay buffer [prepared by adding 10 mL of solution which was produced by adding 20 mL of 1 M HEPES (pH 7.4) (DOJIN) to 1 L of HBSS (Invitrogen), dissolving 710 mg of probenecid (Sigma) in 5 mL of 1N NaOH, and further adding 5 mL of the above-mentioned HBSS/HEPES solution thereto and mixing it.] containing 105 μL of fetal bovine serum, to give a fluorescent dye solution. The medium of the cell plate was removed, and immediately, the fluorescent dye solution was added at 100 μL/well, and incubated in CO2 incubator for 1 hour, allowing the fluorescent dye to be incorporated into the cells. The cells after incubation were washed with the above-mentioned assay buffer. The compound to be added to the cells was diluted with the assay buffer to each concentration, added to the plate for the test sample. After conducting the above-mentioned pretreatment, intracellular calcium concentration change after adding the compound was measured in FLIPR to investigate the agonist action. By dose-response curve with the change of fluorescence intensity value at 30 seconds after reaction initiation, EC50 value was calculated.
(Calcium assays in cells follow changes in intracellular calcium, usually with a dye or a luminescent sensor.)
As a reminder, the EC50 is the concentration giving half of the maximal effect. Regarding `Cc1cc(OCc2cc(-c3ccc(F)cc3)oc2C)ccc1CCC(=O)O` [Example 5(8), 3-(4-{[5-(4-Fluorophenyl)-2-methyl-3-furyl]methoxy}-2-methylphenyl)propionic acid], the EC50 worked out at 100 nM.

On to `Cc1cc(OCc2cc(-c3ccc(C(F)(F)F)cc3)oc2C(C)C)ccc1CCC(=O)O` [Example 5(10), 3-[4-({2-Isopropyl-5-[4-(trifluoromethyl)phenyl]-3-furyl}methoxy)-2-methylphenyl]propionic acid], for which the EC50 amounted to 870 nM. On to `CCCCc1oc(-c2ccc(C(F)(F)F)cc2)cc1COc1ccc(CCC(=O)O)c(C)c1` [Example 5(11), 3-[4-({2-Butyl-5-[4-(trifluoromethyl)phenyl]-3-furyl}methoxy)-2-methylphenyl]propionic acid], for which the concentration for a half-maximal effect (EC50) is 580 nM.

Take `Cc1oc(-c2ccc(C(F)(F)F)cc2)cc1COc1ccc(OCC(=O)O)cc1` [Example 6(7), [4-({2-Methyl-5-[4-(trifluoromethyl)phenyl]-3-furyl}methoxy)phenoxy]acetic acid]: the EC50 was found to be 290 nM. Consider `CCCCC/C=C\C/C=C\C/C=C\CCCCC(=O)O` [γ-linolenic acid], for which the 50% effective concentration (EC50) was 2000 nM.

System in the next series: not given
Assay: not given
Settings: not given
The melting point is the temperature of the solid-liquid transition. For the compound `Cc1cc(OCc2cc(-c3ccc(F)cc3)oc2C)ccc1CCC(=O)O` [Example 5(8), 3-(4-{[5-(4-Fluorophenyl)-2-methyl-3-furyl]methoxy}-2-methylphenyl)propionic acid], the melting point fell in the range of 123 to 125 °C. The same measure, in the same setting: the same measure for `Cc1cc(OCc2cc(-c3ccc(C(F)(F)F)cc3)oc2C(C)C)ccc1CCC(=O)O` [Example 5(10), 3-[4-({2-Isopropyl-5-[4-(trifluoromethyl)phenyl]-3-furyl}methoxy)-2-methylphenyl]propionic acid]: 108 to 109 °C. Compound `CCCCc1oc(-c2ccc(C(F)(F)F)cc2)cc1COc1ccc(CCC(=O)O)c(C)c1` [Example 5(11), 3-[4-({2-Butyl-5-[4-(trifluoromethyl)phenyl]-3-furyl}methoxy)-2-methylphenyl]propionic acid] registered a melting point of 118 to 119 °C. `Cc1oc(-c2ccc(C(F)(F)F)cc2)cc1COc1ccc(OCC(=O)O)cc1` [Example 6(7), [4-({2-Methyl-5-[4-(trifluoromethyl)phenyl]-3-furyl}methoxy)phenoxy]acetic acid] displayed a melting point of 168 to 169 °C.

On to `Cc1oc(-c2ccc(C(F)(F)F)cc2)cc1COc1cccc(-c2cccc(CC(=O)O)c2)c1` [Example 6(126), [3′-({2-Methyl-5-[4-(trifluoromethyl)phenyl]-3-furyl}methoxy)-1,1′-biphenyl-3-yl]acetic acid], for which the melting point was in the range of 128 to 129 °C. `Cc1oc(-c2ccc(C(F)(F)F)cc2)cc1COc1cccc(CSC(C)C(=O)O)c1` (stereo not shown) [Example 9(1), 2-{[3-({2-Methyl-5-[4-(trifluoromethyl)phenyl]-3-furyl}methoxy)-benzyl]thio}propionic acid] came in with a melting point of 82 to 83 °C.

`Cc1oc(-c2ccc(C(F)(F)F)cc2)cc1COc1cccc(CSC2(C(=O)O)CCC2)c1` [Example 9(3), 1-{[3-({2-Methyl-5-[4-(trifluoromethyl)phenyl]-3-furyl}methoxy)benzyl]thio}cyclobutanecarboxylic acid]: the melting point lay within 121 to 122 °C. For the compound `CCCC(SCc1cccc(OCc2cc(-c3ccc(C(F)(F)F)cc3)oc2C)c1)C(=O)O` (stereo not shown) [Example 9(4), 2-{[3-({2-Methyl-5-[4-(trifluoromethyl)phenyl]-3-furyl}methoxy)benzyl]thio}pentanoic acid], the melting point is 61 to 62 °C. As for `Cc1oc(-c2ccc(C(F)(F)F)cc2)cc1CCc1ncc(CC(=O)O)s1` [Example 13(1), [2-(2-{2-Methyl-5-[4-(trifluoromethyl)phenyl]-3-furyl}ethyl)-1,3-thiazol-5-yl]acetic acid], the melting point was 143 to 145 °C. With `Cc1nc(CCc2cc(-c3ccc(C(F)(F)F)cc3)oc2C)sc1CC(=O)O` [Example 13(2), [4-Methyl-2-(2-{2-methyl-5-[4-(trifluoromethyl)phenyl]-3-furyl}ethyl)-1,3-thiazol-5-yl]acetic acid], the melting point lay within 168 to 169 °C. The same measure, in the same setting: the same measure for `Cc1oc(-c2ccc(C(F)(F)F)cc2)cc1CCc1nc(C(C)C)c(CC(=O)O)s1` [Example 13(3), [4-Isopropyl-2-(2-{2-methyl-5-[4-(trifluoromethyl)phenyl]-3-furyl}ethyl)-1,3-thiazol-5-yl]acetic acid]: 176 to 177 °C; for `Cc1nc(CCCc2cc(-c3ccc(C(F)(F)F)cc3)oc2C)sc1CC(=O)O` [Example 13(4), [4-Methyl-2-(3-{2-methyl-5-[4-(trifluoromethyl)phenyl]-3-furyl}propyl)-1,3-thiazol-5-yl]acetic acid]: 162 to 163 °C. Still for that read-out and setting: for `Cc1oc(-c2ccc(C(F)(F)F)cc2)cc1CCc1ncc(CC(=O)O)o1` [Example 13(5), [2-(2-{2-Methyl-5-[4-(trifluoromethyl)phenyl]-3-furyl}ethyl)-1,3-oxazol-5-yl]acetic acid] the value was 143 to 144 °C.

`Cc1nc(CCc2cc(-c3ccc(C(F)(F)F)cc3)oc2C)oc1CC(=O)O` [Example 13(6), [4-Methyl-2-(2-{2-methyl-5-[4-(trifluoromethyl)phenyl]-3-furyl}ethyl)-1,3-oxazol-5-yl]acetic acid] yielded a melting point of 120 to 121 °C.

With `Cc1oc(-c2ccc(C(F)(F)F)cc2)cc1CCc1nc(C(C)C)c(CC(=O)O)o1` [Example 13(7), [4-Isopropyl-2-(2-{2-methyl-5-[4-(trifluoromethyl)phenyl]-3-furyl}ethyl)-1,3-oxazol-5-yl]acetic acid], the melting point lay in the range of 126 to 128 °C. The compound `Cc1cc(-c2ccc(C(F)(F)F)cc2)oc1COc1ccc(CC(C)(C)C(=O)O)cc1` [Example 20(1), 2,2-Dimethyl-3-[4-({3-methyl-5-[4-(trifluoromethyl)phenyl]-2-furyl}methoxy)phenyl]propionic acid] yielded a melting point of 124 to 126 °C. In the case of `Cc1cc(-c2ccc(C(F)(F)F)cc2)oc1COc1ccc(OC(C)(C)C(=O)O)cc1` [Example 20(2), 2-Methyl-2-[4-({3-methyl-5-[4-(trifluoromethyl)phenyl]-2-furyl}methoxy)phenoxy]propionic acid], the melting point is 116 to 117 °C. Turning to `CCOC(=O)C(C)(C)Oc1ccc(/C=C\c2cc(-c3ccc(C(F)(F)F)cc3)oc2C)cc1` [Example 21-b, Ethyl 2-methyl-2-[4-((Z)-2-{2-methyl-5-[4-(trifluoromethyl)phenyl]-3-furyl}ethenyl)phenoxy]propionate], the melting point is 84 to 85 °C.

On to `Cc1oc(-c2ccc(C(F)(F)F)cc2)cc1/C=C/c1ccc(OC(C)(C)C(=O)O)cc1` [Example 22(1), 2-Methyl-2-[4-((E)-2-{2-methyl-5-[4-(trifluoromethyl)phenyl]-3-furyl}ethenyl)phenoxy]propionic acid], for which the melting point lay within 140 to 141 °C. With `Cc1oc(-c2ccc(C(F)(F)F)cc2)cc1/C=C\c1ccc(OC(C)(C)C(=O)O)cc1` [Example 22(2), 2-Methyl-2-[4-((Z)-2-{2-methyl-5-[4-(trifluoromethyl)phenyl]-3-furyl}ethenyl)phenoxy]propionic acid], the melting point lay within 117 to 118 °C.
